Laboratory results as given in ChEMBL document CHEMBL4130577, “Platanic acid: A new scaffold for the synthesis of cytotoxic agents” (Eur J Med Chem, 2018).

What was measured:
NIH3T3 = experiment: Cytotoxicity against mouse NIH/3T3 cells after 96 hrs by SRB assay; type: cell-based; settings: NIH3T3, 96 h
MCF7 = experiment: Cytotoxicity against human MCF7 cells after 96 hrs by SRB assay; type: functional, cell-based; settings: MCF7, 96 h
518A2 = experiment: Cytotoxicity against human 518A2 cells after 96 hrs by SRB assay; type: functional, cell-based; settings: 518A2, 96 h
A2780 = experiment: Cytotoxicity against human A2780 cells after 96 hrs by SRB assay; type: functional, cell-based; settings: A2780, 96 h
HT-29 = experiment: cells; settings: Homo sapiens, HT-29, 96 h
Description: Cytotoxicity against human HT-29 cells after 96 hrs by SRB assay

A549 = experiment: Cytotoxicity against human A549 cells after 96 hrs by SRB assay; type: functional, cell-based; settings: A549, 96 h

SMILES	EC50 (NIH3T3) [µM]	EC50 (MCF7) [µM]	EC50 (518A2) [µM]	EC50 (A2780) [µM]	EC50 (HT-29) [µM]	EC50 (A549) [µM]
CC(=O)O[C@H]1CC[C@]2(C)[C@H]3CC[C@@H]4[C@H]5[C@H]([C@@H](C)N)CC[C@]5(C(=O)O)CC[C@@]4(C)[C@]3(C)CC[C@H]2C1(C)C	27.2	> 30	23.2	> 30	20.7	> 30
CC(=O)O[C@H]1CC[C@]2(C)[C@H]3CC[C@@H]4[C@H]5[C@H]([C@@H](C)N)CC[C@]5(C(=O)OCc5ccccc5)CC[C@@]4(C)[C@]3(C)CC[C@H]2C1(C)C	4.1	3	2.2	4	2.3	3.1
C[C@@H](N)[C@@H]1CC[C@]2(C(=O)OCc3ccccc3)CC[C@]3(C)[C@H](CC[C@@H]4[C@@]5(C)CC[C@H](O)C(C)(C)[C@@H]5CC[C@]43C)[C@@H]12	7.3	5.6	7.5	7.5	5	10.1
COC(=O)[C@]12CC[C@@H]([C@H](C)N)[C@@H]1[C@H]1CC[C@@H]3[C@@]4(C)CC[C@H](OC(C)=O)C(C)(C)[C@@H]4CC[C@@]3(C)[C@]1(C)CC2	4.4	4.6	6.3	6	2	6.6
COC(=O)[C@]12CC[C@@H](/C(C)=N\O)[C@@H]1[C@H]1CC[C@@H]3[C@@]4(C)CC[C@H](OC(C)=O)C(C)(C)[C@@H]4CC[C@@]3(C)[C@]1(C)CC2	12.3	12.1	9.7	12.9	13	8.8
COC(=O)[C@]12CC[C@@H](/C(C)=N/OC(C)=O)[C@@H]1[C@H]1CC[C@@H]3[C@@]4(C)CC[C@H](OC(C)=O)C(C)(C)[C@@H]4CC[C@@]3(C)[C@]1(C)CC2	15	13.1	16.5		23.8	13.5
CC(=O)O[C@H]1CC[C@]2(C)[C@H]3CC[C@@H]4[C@H]5[C@H](/C(C)=N/O)CC[C@]5(C(=O)OCc5ccccc5)CC[C@@]4(C)[C@]3(C)CC[C@H]2C1(C)C	6.1	6.8	9	6.1	12.3	7.9
C[C@@H](N)[C@@H]1CC[C@]2(CO)CC[C@]3(C)[C@H](CC[C@@H]4[C@@]5(C)CC[C@H](O)C(C)(C)[C@@H]5CC[C@]43C)[C@@H]12	16	> 30	23.7	> 30	20.3	> 30
CC(=O)[C@@H]1CC[C@]2(C(=O)NCCN(C)C)CC[C@]3(C)[C@H](CC[C@@H]4[C@@]5(C)CC[C@H](O)C(C)(C)[C@@H]5CC[C@]43C)[C@@H]12	3.5	3.2	3.6	4	3.9	5.1
CC(=O)O[C@H]1CC[C@]2(C)[C@H]3CC[C@@H]4[C@H]5[C@H](/C(C)=N\O)CC[C@]5(C(=O)OCc5ccccc5)CC[C@@]4(C)[C@]3(C)CC[C@H]2C1(C)C	14	7.3	16.5	9.9	20.1	11.2
CC(=O)O[C@H]1CC[C@]2(C)[C@H]3CC[C@@H]4[C@H]5[C@H](C(C)=O)CC[C@]5(N=C=O)CC[C@@]4(C)[C@]3(C)CC[C@H]2C1(C)C	> 30	> 30		> 30	> 30	
COC(=O)[C@]12CC[C@@H](NC(C)=O)[C@@H]1[C@H]1CC[C@@H]3[C@@]4(C)CC[C@H](O)C(C)(C)[C@@H]4CC[C@@]3(C)[C@]1(C)CC2	> 30	> 30		> 30	> 30	> 30
CC(=O)[C@@H]1CC[C@]2(C(=O)OCc3ccccc3)CC[C@]3(C)[C@H](CC[C@@H]4[C@@]5(C)CC[C@@H](N)C(C)(C)[C@@H]5CC[C@]43C)[C@@H]12	2.5	1.9	2.3	2.8	2.4	3.6
CC(=O)[C@@H]1CC[C@]2(C(=O)OCc3ccccc3)CC[C@]3(C)[C@H](CC[C@@H]4[C@@]5(C)CC[C@H](N)C(C)(C)[C@@H]5CC[C@]43C)[C@@H]12	2.3	1.8	1.9	2.2	1.5	2.1
CC(=O)[C@@H]1CC[C@]2(C(=O)O)CC[C@]3(C)[C@H](CC[C@@H]4[C@@]5(C)CC[C@H](O)C(C)(C)[C@@H]5CC[C@]43C)[C@@H]12 [PLATANIC ACID]	35.4	34.2	44.8	37	36.2	47.3
CN[C@@H]1C[C@H]2O[C@@](C)([C@@H]1OC)n1c3ccccc3c3c4c(c5c6ccccc6n2c5c31)C(=O)NC4 [STAUROSPORINE]	0.008			0.12	0.15	0.04
CC(=O)O[C@H]1CC[C@]2(C)[C@H]3CC[C@@H]4[C@H]5[C@H](C(C)=O)CC[C@]5(C(=O)O)CC[C@@]4(C)[C@]3(C)CC[C@H]2C1(C)C	> 30	> 30	> 30	> 30	> 30	> 30
COC(=O)[C@]12CC[C@@H](/C(C)=N/O)[C@@H]1[C@H]1CC[C@@H]3[C@@]4(C)CC[C@H](OC(C)=O)C(C)(C)[C@@H]4CC[C@@]3(C)[C@]1(C)CC2	14	12.4	7.8	12.2	14.4	8.2
COC(=O)[C@]12CC[C@@H](C(C)=O)[C@@H]1[C@H]1CC[C@@H]3[C@@]4(C)CC[C@H](OC(C)=O)C(C)(C)[C@@H]4CC[C@@]3(C)[C@]1(C)CC2	> 30	> 30		> 30	> 30	
CC(=O)[C@@H]1CC[C@]2(N)CC[C@]3(C)[C@H](CC[C@@H]4[C@@]5(C)CC[C@H](O)C(C)(C)[C@@H]5CC[C@]43C)[C@@H]12	27.5	> 30	> 30	> 30	18.7	> 30
COC(=O)[C@]12CC[C@@H](C(C)=O)[C@@H]1[C@H]1CC[C@@H]3[C@@]4(C)CC[C@H](O)C(C)(C)[C@@H]4CC[C@@]3(C)[C@]1(C)CC2	> 30	> 30		> 30	> 30	> 30
COC(=O)[C@]12CC[C@@H](NC(C)=O)[C@@H]1[C@H]1CC[C@@H]3[C@@]4(C)CC[C@H](OC(C)=O)C(C)(C)[C@@H]4CC[C@@]3(C)[C@]1(C)CC2	24.1	10		22.1	> 30	27.7
CC(=O)[C@@H]1CC[C@]2(C(=O)NCCN)CC[C@]3(C)[C@H](CC[C@@H]4[C@@]5(C)CC[C@H](O)C(C)(C)[C@@H]5CC[C@]43C)[C@@H]12	2.5	2.4	2.5	2.5	2.3	2.6
CC(=O)OC[C@]12CC[C@@H]([C@@H](C)N)[C@@H]1[C@H]1CC[C@@H]3[C@@]4(C)CC[C@H](OC(C)=O)C(C)(C)[C@@H]4CC[C@@]3(C)[C@]1(C)CC2	4	2.1	2.2	2.5	1.2	2.3
CC(=O)O[C@H]1CC[C@]2(C)[C@H]3CC[C@@H]4[C@H]5[C@H](C(C)=O)CC[C@]5(C(=O)NCCN5CCCC5)CC[C@@]4(C)[C@]3(C)CC[C@H]2C1(C)C	0.6	2	3.3	4.3	2.2	2.9
CC(=O)O[C@H]1CC[C@]2(C)[C@H]3CC[C@@H]4[C@H]5[C@H](C(C)=O)CC[C@]5(C(=O)OCc5ccccc5)CC[C@@]4(C)[C@]3(C)CC[C@H]2C1(C)C	> 30	> 30		> 30	> 30	
CC(=O)[C@@H]1CC[C@]2(C(=O)OCc3ccccc3)CC[C@]3(C)[C@H](CC[C@@H]4[C@@]5(C)CC[C@H](O)C(C)(C)[C@@H]5CC[C@]43C)[C@@H]12	18.1	9		15.8	10.1	15.9
CNC(=O)[C@@H]1CC[C@]2(C(=O)OC)CC[C@]3(C)[C@H](CC[C@@H]4[C@@]5(C)CC[C@H](OC(C)=O)C(C)(C)[C@@H]5CC[C@]43C)[C@@H]12	> 30	13.9		11.2	> 30	> 30
CCC(=O)O/N=C(\C)[C@@H]1CC[C@]2(C(=O)OC)CC[C@]3(C)[C@H](CC[C@@H]4[C@@]5(C)CC[C@H](OC(C)=O)C(C)(C)[C@@H]5CC[C@]43C)[C@@H]12	15.3	13.4	17.9		28.7	13.2
CNC(=O)[C@@H]1CC[C@]2(C(=O)OC)CC[C@]3(C)[C@H](CC[C@@H]4[C@@]5(C)CC[C@H](O)C(C)(C)[C@@H]5CC[C@]43C)[C@@H]12	> 30	> 30		> 30	> 30	> 30
